The values that follow come from patent US20250388584A1, “TPK AGONIST AND METHOD FOR TREATING NEURODEGENERATIVE DISEASES USING SAME” (SHANGHAI RAISING PHARMACEUTICAL CO., LTD., priority 2022, published 2025).

The experiment deals with TPK enzyme (Homo sapiens (Human), UniProt Q9H3S4). The experiment can be described thus: TPK enzyme activity test. The experiment is classed as biochemical. To be noted: for Emax: calculated with the effect of DMSO on TPK enzyme activity as 100%; for EC50: promoting effect on TPK enzyme activity.

Each structure is given as a SMILES string. Like-named read-outs stand apart in the source and are kept apart here.

TPK enzyme, sequence (Q9H3S4 whole entry): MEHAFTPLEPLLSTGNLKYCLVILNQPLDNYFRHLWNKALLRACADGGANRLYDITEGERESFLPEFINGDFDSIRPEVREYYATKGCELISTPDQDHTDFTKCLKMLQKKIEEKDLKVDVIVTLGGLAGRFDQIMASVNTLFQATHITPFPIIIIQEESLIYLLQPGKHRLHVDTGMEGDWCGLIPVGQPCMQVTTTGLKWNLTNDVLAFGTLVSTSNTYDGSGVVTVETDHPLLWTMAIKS

Take `O=C(CCn1cnc2c(oc3ccc(F)cc32)c1=O)N1CCN(c2cccc(C(F)(F)F)c2)CC1` [Compound 148, 8-fluoro-3-(3-oxo-3-(4-(3-(trifluoromethyl)phenyl)piperazin-1-yl)propyl)benzofuro[3,2-d]pyrimidin-4 (3H)-one]: the midpoint of the response, the EC50, lay at 1990 nM. For the same molecule, the Emax (read-out: Emax) is 151%.
The corresponding values for `O=C(CCn1cnc2c(oc3ccc(F)cc32)c1=O)N1CCC(Cc2ccc(F)cc2)CC1` [Compound 150, 8-fluoro-3-(3-(4-(4-fluorobenzyl)piperidin-1-yl)-3-oxopropyl)benzofuro[3,2-d]pyrimidin-4(3H)-one] are 1990 nM and 171%.
For `O=C(CCn1cnc2c(oc3ccc(F)cc32)c1=O)N1CCC(O)(c2cccc(C(F)(F)F)c2)CC1` [Compound 151, 8-fluoro-3-(3-(4-hydroxy-4-(3-(trifluoromethyl)phenyl)piperidin-1-yl)-3-oxopropyl)benzofuro[3,2-d]pyrimidin-4(3H)-one] the same measures were 5980 nM and 189%.
Regarding `O=C(CCn1cnc2c([nH]c3ccc(F)cc32)c1=O)N1CCN(c2cccc(C(F)(F)F)c2)CC1` [Compound 153, 8-fluoro-3-(3-oxo-3-(4-(3-(trifluoromethyl)phenyl)piperazin-1-yl)propyl)-3,5-dihydro-4H-pyrimido[5,4-b]indol-4-one], the Emax is 130.73% and the EC50 amounted to 3170 nM.
In turn, `O=C(CCn1cnc2c([nH]c3ccc(F)cc32)c1=O)N1CCC(Cc2ccc(F)cc2)CC1` [Compound 154, 8-fluoro-3-(3-(4-(4-fluorobenzyl)piperidin-1-yl)-3-oxopropyl)-3,5-dihydro-4H-pyrimido[5,4-b]indol-4-one] returned an EC50 of 2600 nM. Besides, where the note is “read-out: Emax”, the Emax is 144%.
In turn, `Cc1ccc2[nH]c3c(=O)n(CCC(=O)N4CCC(Cc5ccc(F)cc5)CC4)cnc3c2c1` [Compound 164] registered an EC50 of 2320 nM.
The molecule `Cc1ccc2[nH]c3c(=O)n(CCC(=O)N4CCC(O)(c5cccc(C(F)(F)F)c5)CC4)cnc3c2c1` [Compound 165, 3-(3-(4-hydroxy-4-(3-(trifluoromethyl)phenyl)piperidin-1-yl)-3-oxopropyl)-8-methyl-3,5-dihydro-4H-pyrimido[5,4-b]indol-4-one] showed an EC50 of 2490 nM. For the same molecule, the Emax (read-out: Emax) is 157%.
For `Cc1ccc2[nH]c3c(=O)n(CCC(=O)N4CCC(N(C)c5cccc(Cl)c5Cl)CC4)cnc3c2c1` [Compound 166, 3-(3-(4-((2,3-dichlorophenyl)(methyl)amino)piperidin-1-yl)-3-oxopropyl)-8-methyl-3,5-dihydro-4H-pyrimido[5,4-b]indol-4-one] the same measures were 495 nM and 119%.
For `Cc1ccc2[nH]c3c(=O)n(CCC(=O)N4CCN(c5ccc(S(=O)(=O)N6CCCCC6)cc5)CC4)cnc3c2c1` [Compound 169, 8-methyl-3-(3-oxo-3-(4-(4-(piperidin-1-ylsulfonyl)phenyl)piperazin-1-yl)propyl)-3,5-dihydro-4H-pyri mid[5,4-b]indol-4-one], a half-maximal effect (EC50) was put at 2140 nM. Besides, the Emax (read-out: Emax) was 147%.
As for `Cc1ccc2[nH]c3c(=O)n(CCC(=O)N4CCN(c5cccc(S(=O)(=O)N6CCCCC6)c5)CC4)cnc3c2c1` [Compound 170, 8-methyl-3-(3-oxo-3-(4-(3-(piperidin-1-ylsulfonyl)phenyl)piperazin-1-yl)propyl)-3,5-dihydro-4H-pyrimido[5,4-b]indol-4-one], the EC50 was determined as 2370 nM. The Emax (read-out: Emax) was 151%.
For `COC(=O)CCC(=O)OCCN1CCN(CCCN2c3ccccc3Sc3ccc(C(F)(F)F)cc32)CC1` [Compound 184, methyl (2-(4-(3-(2-(trifluoromethyl)-10H-phenothiazin-10-yl)propyl)piperazin-1-yl)ethyl) Succinate], the Emax was 176%.
`O=C1CCCCN1CCCN1c2ccccc2Sc2ccccc21` [Compound 186, 1-(3-(10H-phenothiazin-10-yl)propyl)piperidin-2-one] came in with an EC50 of 2660 nM. Besides, the Emax (read-out: Emax) is 176%.
The corresponding values for `O=C1CCCCN1CCCCCCN1c2ccccc2Sc2ccc(C(F)(F)F)cc21` [Compound 187, 1-(6-(2-(trifluoromethyl)-10H-phenothiazin-10-yl)hexyl)piperidin-2-one] are 1130 nM and 191%.
In the case of `O=C1c2ccccc2CN1CCCN1c2ccccc2Sc2ccccc21` [Compound 189, 2-(3-(10H-phenothiazin-10-yl)propyl)isoindolin-1-one], the EC50 is 1200 nM. Under “read-out: Emax”, the Emax is 180%.
For `O=C1Cc2ccc(OCCCN3c4ccccc4Sc4ccccc43)cc2N1` [Compound 190, 6-(3-(10H-phenothiazin-10-yl)propoxy)indoline-2-one] the same measures were 1110 nM and 164%.
The corresponding values for `O=C1CCCCN1CCCCCCN1CCSc2ccc(C(F)(F)F)cc21` [Compound 193, 1-(6-(6-(trifluoromethyl)-2,3-dihydro-4H-benzo[b][1,4]thiazin-4-yl)hexyl)piperidin-2-one] are 7490 nM and 178%.
In the case of `O=C1CCCCN1CCCN1CCSc2ccc(C(F)(F)F)cc21` [Compound 194, 1-(3-(6-(trifluoromethyl)-2,3-dihydro-4H-benzo[b][1,4]thiazin-4-yl)propyl)piperidin-2-one], for the setting “read-out: Emax”, the Emax is 139%.
Turning to `O=C1CCCCN1CCCCCCN1C(=O)CSc2ccc(C(F)(F)F)cc21` [Compound 195, 4-(6-(2-oxopiperidin-1-yl)hexyl)-6-(trifluoromethyl)-2H-benzo[b][1,4]thiazin-3(4H)-one], the Emax (read-out: Emax) was 136%.
For `O=C1c2ccccc2CN1CCCN1CCSc2ccc(C(F)(F)F)cc21` [Compound 197, 2-(3-(6-(trifluoromethyl)-2,3-dihydro-4H-benzo[b][1,4]thiazin-4-yl)propyl)isoindolin-1-one], where the note is “read-out: Emax”, the Emax was 132%.
Regarding `O=C(O)CCC(=O)OCCN1CCN(CCC(=O)N2c3ccccc3Sc3ccc(C(F)(F)F)cc32)CC1` [Compound 199], the EC50 was determined as 490 nM. Moreover, for the setting “read-out: Emax”, the Emax is 204%.
Regarding `O=C(CCN1c2ccccc2Sc2ccccc21)NCCN1CCOCC1` [Compound 200], the EC50 was determined as 2.94 nM. The Emax (read-out: Emax) was 168%.
Consider `O=C1CCc2ccc(OCCCCN3c4ccccc4Sc4ccc(C(F)(F)F)cc43)cc2N1` [Compound 204], for which the Emax is 186.22% and the EC50 amounted to 107 nM.
On to `O=C1CCc2ccc(OCCCCN3c4ccccc4Sc4ccc(C(F)(F)F)cc43)cc2N1` [Compound 205, 7-(4-(2-(trifluoromethyl)-10H-phenothiazin-10-yl)butoxy)-3,4-dihydroquinolin-2(1H)-one], for which the Emax is 137.51%.
For the molecule `O=C1CCc2ccc(OCCCCCN3c4ccccc4Sc4ccc(C(F)(F)F)cc43)cc2N1` [Compound 206, 7-((5-(2-(trifluoromethyl)-10H-phenothiazin-10-yl)pentyl)oxy)-3,4-dihydroquinolin-2(1H)-one], the EC50 turned out to be 1450 nM. Also, the Emax (read-out: Emax) was 165%.
Regarding `O=C1CCc2ccc(OCCCCCCN3c4ccccc4Sc4ccc(C(F)(F)F)cc43)cc2N1` [Compound 207, 7-((6-(2-(trifluoromethyl)-10H-phenothiazin-10-yl)hexyl)oxy)-3,4-dihydroquinolin-2(1H)-one], under “read-out: Emax”, the Emax was 129%.

The Emax is the greatest response seen or fitted, relative to the assay's reference. As usually defined, the EC50 is the concentration at which the effect is half-maximal. A low value points to a more potent agent.
